Here are results for 4 compounds from patent US7811820B2, “Smooth muscle cell differentiation with CRP, SRF and GATA factors” (Baylor College of Medicine, priority 2003, dated 2010).

Entries after “also recorded” stand apart in the source; their conditions may differ.

What all share (assay type): cell-based, monkey
Assay [1] has as its system CRP2 nuclear localization in CV1 cells. The assay is described as follows: Indirect immunofluorescence of V5 epitope-tagged CRP2 localization in transfected CV1 cells. The settings on record: for Nuclear localization of epitope-tagged CRP2: cytochalasin D 5 μg/ml, latrunculin B not shown; for CRP2 accumulation in the nucleus: after one hour of treatment; for CRP2 accumulation / localization in the nucleus: summary statement, no concentration given. As to the method: (§1) FIGS. 9A-9B show signaling mechanisms involved in CRP2 nuclear localization. In FIG. 9A, there is indirect immunofluorescent analysis of V5 epitope-tagged CRP2 (green) in CV1 cells. Untreated control CV1 cells show global localization of CRP2. […] Fold-activation was determined by comparison to the transfection with empty expression vector in lane 1.
In CV1 fibroblasts, overexpressed wild type CRP2 localizes both in the nucleus and in the cytoplasmic compartments, similar to the subcellular distribution pattern of endogenous CRP2 (Chang et al., 2003). When NLS- or NES-tag is added, the fusion CRP2-NLS or CRP2-NES protein becomes over 90% nuclear- or cytoplasmic-exclusive localized, respectively (FIG. 8A). These reagents allow functional analyses to differentiate nuclear versus cytoplasmic functions of CRP2. […] Nuclear distribution of CRP2 is coincident with reporter gene activation.
(§2) To elucidate the mechanism controlling CRP2 shuttling, the inventors treated transiently transfected monkey CV1 fibroblasts with drugs that either affect cytoskeletal integrity ([…], cytochalasin D, latrunculin B) or are inhibitors of nuclear export (leptomycin B) and looked for changes in the distribution of CRP2.

Another assay has as its system actin cytoskeleton. The assay is described as follows: Actin cytoskeleton integrity in CV1 cells (rhodamine phalloidin). As to the method: as §1, §2
A further assay deals with SMA promoter. The assay is described as follows: SMA-luciferase reporter transactivation assay in CV1 cells. The settings on record: CV1 cells cotransfected with CRP2, SRF and GATA6, drug added 12 h after cotransfection, lysates 6-24 h post-drug.
In a further assay the test system is SM22α promoter. The assay is described as follows: SM22α promoter luciferase reporter assay in CV1 cells.

On to `C/C1=C/C(=O)O[C@@H]2C[C@@H](CC[C@H](C)/C=C\CC1)O[C@@](O)([C@@H]1CSC(=O)N1)C2` [latrunculin B], for which the “Nuclear localization of epitope-tagged CRP2” value in assay [1] is “observed”. Besides, the “dissolution of the actin cytoskeleton” value with actin cytoskeleton is recorded as “completely dissolved the actin cytoskeleton within one hour”.
For `CCC(=C/[C@H](C)C/C=C/C(C)=C/[C@@H](C)C(=O)[C@@H](C)[C@H](O)[C@@H](C)C/C(C)=C/C(=O)O)/C=C/[C@@H]1OC(=O)C=C[C@@H]1C` [leptomycin B], the “transfected CV1 cells displaying CRP2 accumulation in the nucleus” value in assay [1] (2 hr of 10 μg/ml treatment) was 82%. In addition, in assay [1], the “CRP2 accumulation in the nucleus” value is given as “accumulate in the nucleus” and the “CRP2 accumulation / localization in the nucleus” value was “induced CRP2 accumulation in the nucleus”.
As to `C=C1[C@@H](C)[C@H]2[C@H](Cc3ccccc3)NC(=O)[C@]23[C@H](OC(C)=O)/C=C/[C@@](C)(O)C(=O)[C@@H](C)C/C=C/[C@H]3[C@@H]1O` [cytochalasin D], in assay [1], the “CRP2 accumulation in the nucleus” value is given as “accumulate in the nucleus” and the “Nuclear localization of epitope-tagged CRP2” value is on record as “observed”. In addition, the “dissolution of the actin cytoskeleton” value in the assay on actin cytoskeleton was “completely dissolved the actin cytoskeleton within one hour”.
Consider `C[C@@H](N)[C@H]1CC[C@H](C(=O)Nc2ccncc2)CC1` [Y-27632], for which the “cells with CRP2 nuclear localization” value in assay [1] (10 μM in growth medium of transfected CV1 fibroblasts) was 68%. Further, in assay [1], the “CRP2 accumulation in the nucleus” value is on record as “accumulate in the nucleus” and the “CRP2 accumulation / localization in the nucleus” value is listed as “facilitated CRP2 nuclear localization”. In addition, the “SMA gene activation / SMA-Luc reporter activity after drug treatment” value in the assay with SMA promoter was “further upregulates; also recorded: further up-regulated”. In addition, the “SMA gene activation / SMA-Luc reporter activity after drug treatment” value with SMA promoter (listed as Y-26732) is “increases”. Besides, the “SM22α promoter activity after drug treatment” value with SM22α promoter is “further up-regulated”.
